IC50 data for 1 compound are collected here from paper PMC3191281 (2011).

Each structure is given as a SMILES string.

The target in the assay is T1, CK1α (casein kinase Iα) (Homo sapiens, UniProt P48729).
T1 sequence (P48729 2-337): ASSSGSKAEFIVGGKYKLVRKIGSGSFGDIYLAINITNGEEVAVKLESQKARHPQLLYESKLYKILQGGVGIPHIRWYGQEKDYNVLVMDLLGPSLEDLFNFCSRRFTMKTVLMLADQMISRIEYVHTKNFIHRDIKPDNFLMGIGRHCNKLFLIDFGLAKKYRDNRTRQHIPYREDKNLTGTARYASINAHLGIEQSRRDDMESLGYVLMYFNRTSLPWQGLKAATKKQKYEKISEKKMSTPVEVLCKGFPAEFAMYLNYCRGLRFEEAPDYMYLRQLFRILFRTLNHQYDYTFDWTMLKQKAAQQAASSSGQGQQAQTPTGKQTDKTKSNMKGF
Nature of the assay: TR-FRET. The class given is biochemical.

Compound `CCCCCc1cc(/C=C2/N=C(c3ccc[nH]3)C=C2OC)[nH]c1C` [NSC 47147] gave an IC50 of 6 µM.
